Measured values reported in publication PMC11486130, “Structure-guided discovery of novel dUTPase inhibitors with anti-Nocardia activity by computational design” (Journal of Enzyme Inhibition and Medicinal Chemistry, 2024).

Legend:
[1] = target: T1, NsdUTPase A22V (Nocardia seriolae, UniProt A0ABF7PKI9, A22V); experiment: Kd to A22V mutant of NsdUTPase; type: binding, N. seriolae
T1 sequence (A0ABF7PKI9 1-166 A22V): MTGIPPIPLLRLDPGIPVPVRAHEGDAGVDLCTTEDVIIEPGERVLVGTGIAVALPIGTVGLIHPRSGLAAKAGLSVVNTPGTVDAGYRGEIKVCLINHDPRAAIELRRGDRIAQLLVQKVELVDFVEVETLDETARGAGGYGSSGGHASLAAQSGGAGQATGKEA

[2] = target: T2, NsdUTPase K93A (Nocardia seriolae, UniProt A0ABF7PKI9, K93A); experiment: Kd to K93A mutant of NsdUTPase; type: binding, N. seriolae
T2 sequence (A0ABF7PKI9 1-166 K93A): T1 sequence (A0ABF7PKI9 1-166 A22V)

Structure (SMILES) | Kd [1] | Kd [2]
C=CCn1c(-c2ccc(Oc3ccccc3)cc2)nc2cc(C)ccc21 [12b, 1-Allyl-5-methyl-2-(4-phenoxyphenyl)-1H-benzo[d]imidazole] | 3.16 µM | 40.9 µM
C=CCn1c(/C=C/c2ccccc2)nc2cc(C(F)(F)F)ccc21 [4b, (E)-1-Allyl-2-styryl-5-(trifluoromethyl)-1H-benzo[d]imidazole] | 5.34 µM | 50.7 µM
